For data set [1] the following is noted: lower threshold = stronger coolant; data of U.S. Pat. Nos. 4,060,091 etc.; cited from earlier work.
The conditions of data set [2]: cited from earlier work; for sensitivity threshold (corrected data): J. Soc. Cosmet. Chem., 1978, vol. 29, pp. 185–200.
The nature of data set [3]: visual and organoleptic test of aqueous solution of the product. The format is in vivo. The following applies: 25 ppm aqueous solution. From the text: (§1) Further, the aqueous solutions of products for organoleptic tests were obtained by dissolving appropriate amounts of the products in dipropylene glycol DPG and adding the solution in DPG to an appropriate amount of water.

Data set [4] in a line: comparison of cooling strength to WS-3 in oral application. Particulars: for cooling strength relative to WS-3 (times stronger): aqueous solutions, vs 10 ppm WS-3. The format is in vivo. The protocol:
as §1
A comparison basis aqueous solution of WS-3 (compound 5) was prepared containing 10 ppm concentration of WS-3.
Aqueous solutions were prepared containing various concentrations of the purified compound 10: 2 ppm, 3 ppm, 4 ppm, 5 ppm, and higher. These solutions were tested in oral application in comparison to the basis solution of 10 ppm of WS-3.
Aqueous solutions were prepared containing various concentrations of the purified compound 10: 2 ppm, 3 ppm, 3.5 ppm, 4 ppm, 5 ppm, and higher. These solutions were tested in oral application in comparison to the basis solution of 10 ppm of WS-3.

Data set [5] in a line: sensitivity threshold (cooling strength) of N-monosubstituted p-menthane-3-carboxamides, prior-art patents. The format is in vivo. Particulars: from patent thresholds 0.2 vs 0.3 μg. The source says: With specific reference to structure 6, substituent “X” is commonly selected from the lower linear or branched alkyl substituents, functionally substituted alkyl substituents, or aryl substituents. To that end, U.S. Pat. Nos. 4,060,091; 4,136,163; 4,150,052; 4,178,459; 4,193,936; and 4,226,988, the entire disclosures of which are hereby incorporated by reference for all purposes, give a comparison of cooling strengths of certain N-monosubstituted p-menthane-3-carboxamides numerically expressed as sensitivity thresholds in μg, wherein a lower threshold value correlates to a stronger coolant effect. Of the compared compounds, the only commercially used N-monosubstituted p-menthane-3-carboxamide compound is the WS-3 coolant, having a sensitivity threshold of 0.3 μg.

The next data set can be described thus: volatility. The following applies: compared with menthol. Type of data set: physicochemical.

`CCNC(=O)C1C[C@H](C)CCC1C(C)C` (stereo in doubt) [WS-3, N-ethyl-p-menthane-3-carboxamide, reference compound]: the sensitivity threshold in data set [1] was 0.3 µg. Moreover, in data set [2], the “sensitivity threshold (corrected data)” value was 0.2 µg.
Regarding `CCOC(=O)CNC(=O)C1CC(C)CCC1C(C)C` (stereo not drawn) [Comparative Synthetic and Organoleptic Example 1] [ethyl ester of N-[[5-methyl-2-(1-methylethyl)cyclohexyl]carbonyl]glycine, reference compound], the tingling/cooling sensation result in data set [3] is “noticeable tingling/cooling sensation”.
For the molecule `CCOC(=O)CNC(=O)C1CC(C)CCC1C(C)C` (stereo not drawn) [Comparative Synthetic and Organoleptic Example 2 after the a] [ethyl ester of N-[[5-methyl-2-(1-methylethyl)cyclohexyl]carbonyl]glycine, reference compound], the tingling/cooling sensation result in data set [3] was “strong tingling/cooling sensation”.
Turning to `CCOC(=O)CNC(=O)C1CC(C)CCC1C(C)C` (stereo not drawn) [Comparative Synthetic and Organoleptic Example 2] [ethyl ester of N-[[5-methyl-2-(1-methylethyl)cyclohexyl]carbonyl]glycine, reference compound], the tingling/cooling sensation result in data set [3] is “strong tingling/cooling sensation”.
As to `CCOC(=O)CNC(=O)C1CC(C)CCC1C(C)C` (stereo not drawn) [Inventive Example 1, ethyl ester of N-[[5-methyl-2-(1-methylethyl)cyclohexyl]carbonyl]glycine], the tingling/cooling sensation result in data set [3] is “very strong tingling/cooling sensation”. Besides, the “cooling effect compared to basis solution of 10 ppm WS-3” value was “approximately equal cooling effect” in data set [4] (4 ppm aqueous solution); “stronger and longer lasting cooling effect” in data set [4] (5 ppm aqueous solution). Moreover, the “cooling strength relative to WS-3 (times stronger)” value in data set [4] was “approximately 2.5 times”.
Consider `CCOC(=O)CNC(=O)C1CC(C)CCC1C(C)C` (stereo not drawn) [Inventive Example 2, ethyl ester of N-[[5-methyl-2-(1-methylethyl)cyclohexyl]carbonyl]glycine], for which, in data set [3], the tingling/cooling sensation result is “very strong tingling/cooling sensation”.
On the same count and under the same terms, the entry for `CCOC(=O)CNC(=O)C1CC(C)CCC1C(C)C` (stereo not drawn) [Inventive Example 3 (A), ethyl ester of N-[[5-methyl-2-(1-methylethyl)cyclohexyl]carbonyl]glycine] is “very strong tingling/cooling sensation”.
Consider `CCOC(=O)CNC(=O)C1CC(C)CCC1C(C)C` (stereo not drawn) [Inventive Example 3, ethyl ester of N-[[5-methyl-2-(1-methylethyl)cyclohexyl]carbonyl]glycine], for which the tingling/cooling sensation entry in data set [3] (listed as Inventive Example 3 (B)) was “extremely strong and pleasant tingling/cooling sensation”. Moreover, the “cooling effect compared to basis solution of 10 ppm WS-3” value in data set [4] (3.5 ppm aqueous solution) was “approximately equal cooling effect”; in data set [4] (4 ppm aqueous solution), “stronger and longer lasting cooling effect”. In data set [4], the “cooling strength relative to WS-3 (times stronger)” value was “approximately 3 times”.
Take `CCOC(=O)CNC(=O)C1CC(C)CCC1C(C)C` (stereo not drawn) [Inventive Example 4, ethyl ester of N-[[5-methyl-2-(1-methylethyl)cyclohexyl]carbonyl]glycine]: in data set [3], the tingling/cooling sensation result is recorded as “very strong tingling/cooling sensation”.
In the case of `CCOC(=O)CNC(=O)C1CC(C)CCC1C(C)C` (stereo not drawn) [Inventive Example 5, ethyl ester of N-[[5-methyl-2-(1-methylethyl)cyclohexyl]carbonyl]glycine], the tingling/cooling sensation entry in data set [3] was “very strong tingling/cooling sensation”.
Turning to `Cc1ccc(NC(=O)C2CC(C)CCC2C(C)C)cc1C` (stereo not drawn) [compound 7], the sensitivity threshold in data set [1] was 0.1 µg.
In the case of `Cc1ccc(NC(=O)C2CC(C)CCC2C(C)C)cc1O` (stereo not drawn) [compound 8], the sensitivity threshold in data set [1] is 0.1 µg.
In the case of `CCOC(=O)CNC(=O)C1CC(C)CCC1C(C)C` (stereo not drawn) [compound 10, ethyl ester of N-[[5-methyl-2-(1-methylethyl)cyclohexyl]carbonyl]glycine], the “cooling strength relative to WS-3 (times stronger)” value in data set [5] worked out at 1.5 times. Moreover, the sensitivity threshold in data set [1] is 0.2 µg. Also, in data set [2], the “sensitivity threshold (corrected data)” value was 0.13 µg. The “cooling strength relative to compound 5 (times stronger)” value in data set [2] (from corrected thresholds 0.13 vs 0.2 μg) is “approximately 1.5 times”. Besides, the volatility result in the data set “volatility” is given as “much lower volatility than menthol”.
